In patent US20260053811A1, “METHODS OF TREATING HYPERTENSION IN OBESE SUBJECTS” (Mineralys Therapeutics, Inc., priority 2022, published 2026):

Test system: serum aldosterone
Test: Serum aldosterone (pharmacodynamic response)
Assay type: in vivo, human
Conditions: for Reduction in median serum aldosterone compared to baseline: week 4, low renin subjects (Part-1); for Aldosterone levels, change relative to baseline, range across active arms / Aldosterone, Mean (SD) Observed / Aldosterone, Mean (SD) Percent Change from Baseline: Part 1; for Aldosterone, Mean Observed / Aldosterone, Mean Percent Change from Baseline: Part 2
Text: PK/PD Analysis Set includes all subjects in the SAF who have sufficient data available for the analysis of pharmacokinetic and pharmacodynamic measurements. In the analyses based on PKPD, subjects will be analyzed according to the actual treatment received.

## CC(=O)N[C@H]1CC[C@H](NC(=O)CN2CCN(c3nncc(-c4ccc(C)cc4)n3)CC2)CC1 [Compound A HBr]
25 mg BID
  Reduction in median serum aldosterone compared to baseline: 9.6%
50 mg QD
  Reduction in median serum aldosterone compared to baseline: 65.2%
100 mg QD
  Reduction in median serum aldosterone compared to baseline: 70.0%
Week 4
  Aldosterone levels, change relative to baseline, range across active arms: −40.1% to 7.4%
Week 12
  Aldosterone levels, change relative to baseline, range across active arms: −26.6% to 15.9%
Wk 4, 12.5 mg BID
  Aldosterone, Mean (SD) Observed: 4.447 (3.681) ng/dL
  Aldosterone, Mean (SD) Percent Change from Baseline: −37.86 (35.66) %
Wk 4, 12.5 mg QD
  Aldosterone, Mean (SD) Observed: 6.132 (4.606) ng/dL
  Aldosterone, Mean (SD) Percent Change from Baseline: 7.39 (91.87) %
Wk 4, 25 mg BID
  Aldosterone, Mean (SD) Observed: 3.192 (3.274) ng/dL
  Aldosterone, Mean (SD) Percent Change from Baseline: 1.66 (233.60) %
Wk 4, 50 mg QD
  Aldosterone, Mean (SD) Observed: 3.923 (5.283) ng/dL
  Aldosterone, Mean (SD) Percent Change from Baseline: −40.06 (70.25) %
Wk 4, 100 mg QD
  Aldosterone, Mean (SD) Observed: 4.000 (4.252) ng/dL
  Aldosterone, Mean (SD) Percent Change from Baseline: −32.18 (75.13) %
  Aldosterone, Mean Observed: 5.060 ng/dL
  Aldosterone, Mean Percent Change from Baseline: −6.05%
Wk 12, 12.5 mg BID
  Aldosterone, Mean (SD) Observed: 6.765 (4.085) ng/dL
  Aldosterone, Mean (SD) Percent Change from Baseline: 1.97 (66.85) %
Wk 12, 12.5 mg QD
  Aldosterone, Mean (SD) Observed: 6.833 (4.743) ng/dL
  Aldosterone, Mean (SD) Percent Change from Baseline: 15.91 (67.68) %
Wk 12, 25 mg BID
  Aldosterone, Mean (SD) Observed: 4.983 (3.432) ng/dL
  Aldosterone, Mean (SD) Percent Change from Baseline: −10.10 (66.83) %
Wk 12, 50 mg QD
  Aldosterone, Mean (SD) Observed: 5.385 (4.087) ng/dL
  Aldosterone, Mean (SD) Percent Change from Baseline: −3.75 (56.02) %
Wk 12, 100 mg QD
  Aldosterone, Mean (SD) Observed: 4.563 (2.868) ng/dL
  Aldosterone, Mean (SD) Percent Change from Baseline: −26.56 (37.55) %
Wk 10, 100 mg QD
  Aldosterone, Mean Observed: 4.929 ng/dL
  Aldosterone, Mean Percent Change from Baseline: −4.06%
Across doses
  Serum aldosterone levels, pharmacodynamic response: dose-dependent reduction in serum aldosterone levels
